Test results: patent US7214668B2, “Phosphonic acid based prodrugs of PMEA and its analogues” (Metabasis Therapeutics, Inc., priority 2002, dated 2007)
Read-outs that look alike come from different tables or passages of the source.

Key:
[1] = PMEApp accumulation in liver organ following oral administration to normal fasted rats; format: in vivo, rat; conditions: 30 mg/kg PMEA equivalents p.o.
Procedure: PMEA prodrugs were tested in vivo to identify prodrugs with suitable oral bioavailability and favorable intrahepatic activation rates.
Following oral administration of 30-mg/kg prodrug (PMEA equivalents) to normal, fasted rats, liver organ samples were freeze-clamped at 8 hr. […] The retention time of PMEApp was 18.6 minutes.

[2] = test system: freshly isolated rat hepatocytes; conditions: 250 μM prodrug
Procedure: PMEA prodrugs were tested.
Hepatocytes were prepared from fed Sprague-Dawley rats (250–300 g) according to the procedure of Berry and Friend (Berry, M. N. Friend, D. S., J. Cell Biol. 43:506–520 (1969)) as modified by Groen (Groen, A. K. et al., Eur. J. Biochem 122:87–93 (1982)). Hepatocytes (60 mg/ml wet weight, >85% trypan blue viability) were incubated in 2 ml of krebs-bicarbonate buffer containing 20 mM glucose, and 1 mg/ml BSA for 4 hours in the presence of 250 μM PMEA prodrugs (from 25 mM stock solutions of prodrugs in methanol). At appropriate time points throughout the incubation (0, 1, 2, 4 hours), 400-μl aliquots of the cell suspension were taken and centrifuged through a silicon/mineral oil layer into 10% perchloric acid to extract intracellular nucleotides. The acidic cell extracts were neutralized with 0.3 volumes of 3M KOH/3M […] before evaluating PMEApp levels by ion exchange HPLC (Hewlett Packard 1050) using a Whatman Partisphere SAX (5 μm, 4.6×125 mm) column. Samples were loaded onto the column in 0.3M-ammonium phosphate buffer pH 3.5 and eluted from the column with a gradient to 0.8 M ammonium phosphate pH 3.5.

[3] = test system: liver microsomes isolated from rats induced with dexamethasone; assay: In vitro activation of PMEA prodrug analogues to PMEA by rat liver microsomes
Procedure: PMEA prodrug analogues were tested for activation to PMEA in reactions catalyzed by the microsomal fraction of rat liver.
Prodrugs (25 and 250 μM) were tested for activation by liver microsomes isolated from rats induced with dexamethasone to enhance CYP3A4 activity (Human Biologics Inc., Phoenix Ariz.). Reactions were conducted in 0.1 M KH2PO4, pH 7.4, in the presence of 2 mM NADPH and liver microsomes (1 mg/mL). Reaction mixtures were incubated for 5 minutes in an Eppendorf Thermomixer 5436 (37° C., speed 6). Reactions were terminated by the addition of 1.5 volumes of methanol. The resulting extracts were clarified by centrifugation at 14,000 rpm in an Eppendorf microfuge (20 minutes). The supernatants (200 μL) were evaporated under vacuum and heat to dryness before resuspending in 80 μL of buffer A (see below) for PMEA analysis. Spiked standards of 9-[2-(phosophonomethoxy)ethyl]adenine, (PMEA, lot 980397, Metabasis Therapeutics) were prepared in the same reaction mixture and processed in an identical fashion. After resuspension, samples were analyzed by reverse phase HPLC (Altima C-18 column) with use of an ion-pairing buffer (Buffer A) consisting of 10 mM ammonium phosphate, 2.5 mM octyltriethylammonium phosphate, pH 5.5. Samples were loaded in Buffer A and eluted with a methanol gradient from 40% to 80% over 20 minutes. Detection was at 265 nm.

[4] = 30 mg/kg PMEA equivalents, in water, normal male rats
Procedure: Compound 56 was solubilized in water for intravenous and oral administration. […] Liver organ concentrations of PMEApp were determined as indicated in Example I.

[5] = Solubility and stability of the mesylate salt of Compound 54 in water; format: physicochemical
Procedure: Ten Compound 54 salt forms (L-tartartric, succinic, maleic, L-malic, D-malic, citric, hydrochloric, phosphoric, nitric, methane-sulfonic acids) were evaluated to identify the best salt form to selectively crystallize out the cis-diastereomer from cis:trans mixtures following the prodrug coupling procedure. Solubility and stability of the mesylate salt of Compound 54 were analyzed in water.

[6] = test system: human liver microsomes; assay: Cis versus trans prodrug activation in human liver microsomes; format: in vitro ADME; conditions: 100 μM prodrug, 2 mg/mL human liver microsomes; for Activation Rate: 5 minutes, 37° C.
Source text: The activation rates of cis (Compound 56, lot #20010093) and trans (9-{2-[2,4-trans-(S)-(+)-4-(3-chlorophenyl)-2-oxo-1,3,2-dioxaphosphorinan-2-yl]methoxyethyl} adenine, (lot 20010195) PMEA prodrugs was compared in order to establish which prodrug diastereomer is activated the most efficiently in human liver microsomes.
Human liver microsomes (mixed pool) were purchased from In Vitro Technologies (Lot RQX). […] Reactions were quenched with 60% methanol.

[7] = cited from earlier work
[8] = oral administration, species not stated; cited from earlier work
[9] = test system: freshly isolated rat hepatocytes; assay: PMEApp accumulation in rat hepatocytes following incubation with Compound 56 and PMEA (25 μM); format: cell-based; conditions: 0–4 h, rat hepatocytes 20 mg/ml
Procedure: Hepatocyte pellets were immediately sonicated in 300 μl of ice-cold acetonitrile followed by the addition of 200 μl of water. Hepatocyte extracts were centrifuged for 20 minutes in an Eppendorf centrifuge at 4° C. and supernatants from the extracts were transferred to a fresh tube. Hepatocyte extract supernatants were evaporated to dryness under vacuum and then resuspended in 200 μl of water. PMEApp concentrations were quantified by LC-MS/MS (negative-ion mode) based on authentic PMEApp standards spiked into hepatocyte extracts. Ten microliter samples were loaded onto a Phenomenex Luna […] C8 column (50×2 mm) in 20 mM N-N-dimethylhexylamine, 10 mM propionic acid and eluted with a gradient of methanol from 20–64% over 5.5 minutes. An API 2000 triple quadrupole mass spectrometer fitted with a pneumatically-assisted electrospray interface was used to quantify the negative ion (PO3^−) using a Multiple Reaction Monitoring (MRM) technique.

[10] = cited from earlier work; remark: listed apart in the source
[11] = humans; i.v. dose; cited from earlier work
[12] = Plasma and urine PMEA following oral Compound 4 and bis POM PMEA in rats; format: in vivo, rat; conditions: 30 mg/kg PMEA equivalents p.o.
Procedure: PMEA levels (0–12 h) were quantified in plasma by fluorescence HPLC following chloroacetaldehyde derivatization. PMEA levels in urine were quantified 48 hours after treatment.
Plasma drug levels: PMEA was determined in plasma by a modification of the procedure described in the literature (Shaw J P, Louie M S, Krishnamurthy V V, Arimilli M N, Jones R J, Bidgood A M, Lee W A, & Cundy K C, Drug Metabolism and Disposition, 25:362–366 (1997)). Plasma (100 μL) samples were extracted with 2 volumes of 0.1% TFA in acetonitrile. Following centrifugation to remove the precipitate, the supernatant was evaporated to dryness. The dried plasma was reconstituted with 200 μL of the derivatization cocktail consisting of 0.34% chloroacetaldehyde in 100 mM sodium acetate pH 4.5 and incubated at 95° C. for 40 min. The samples were evaporated to dryness and reconstituted with mobile phase for analysis by HPLC. The derivatized PMEA was analyzed by an HPLC system (Hewlett Packard 1090) consisting of a Beckman Ultrasphere ODS 4.6×150 mm (5 μm) column developed with a 20-min gradient of 0–30% acetonitrile in 20 mM potassium phosphate pH 6.2. Fluorescence was monitored at an excitation and emission wavelength of 240 and 420 nm, respectively. The column temperature was 40° C. and the flow rate was 1.5 mL/min. The derivatized PMEA was detected and quantified by comparison to an authentic standard prepared in plasma and eluted at approximately 6 minutes. The limit of quantitation of PMEA, was 0.25 μg/mL.
Urinary excretion studies: The percent excretion of PMEA in urine was assessed by a modification of a previously described procedure (Russell J W, Marrero D, Whiterock V J, & Klunk L J, J Chromatog, 572:321–326 (1991)). Aliquots (0.25–0.5 mL) of urine samples and spiked standards were incubated with an equal volume of 17% (v/v) of 50% chloroacetaldehyde in 100 mM sodium acetate pH 4.5 at 50° C. for 4 hrs. Following centrifugation, the supernatant was analyzed by the HPLC method described in the previous section.

[13] = dog, after bis POM PMEA, Cundy et al. 1997; cited from earlier work
[14] = Tissue distribution of PMEA equivalents after oral tritiated Compound 4 and bis POM PMEA in rats; conditions: p.o.
Procedure: Total tritium counts were analyzed in solubilized samples of liver organ, kidney, plasma, urine, red blood cells, small intestine, as well as small intestine contents and feces obtained at various time points over 24 hours. Liver organ specificity was assessed by comparison of the temporal profiles of total tritium in liver organ versus kidney, small intestine, plasma, and red blood cells. Metabolite profiles in perchloric acid extracts of liver organ, kidney, small intestine, feces and urine were analyzed by HPLC.

[15] = cited from earlier work; remark: listed apart in the source
[16] = 30 mg/kg PMEA equivalents p.o., rats
Procedure: Intact prodrug and the metabolite 9-[2-(phosophonomethoxy)ethyl]adenine (PMEA) and the respective mono-acids were measured in the plasma at 0 (predose), 0.33, 1, 3, 5, 8, and 12 hrs post dose by HPLC using fluorescence detection. The pharmacokinetic parameters were calculated based on noncompartmental analysis of the concentration-time profile.

[17] = cited from earlier work; remark: listed apart in the source
[18] = 25 μM prodrug, 1 mg/mL microsomes, 2 mM NADPH, 5 minutes, 37° C., PMEA formation
[19] = 250 μM prodrug, 1 mg/mL microsomes, 2 mM NADPH, 5 minutes, 37° C., PMEA formation

**Q.** With `Nc1ncnc2c1ncn2CCOCP1(=O)OCCC(c2ccccc2)O1` (mixture of isomers) [Compound 1] as the compound, how does the “Rats, PMEApp levels in liver organ @ 8 hr., 30 mg/kg, p.o.” value (shortened to “Rats, PMEApp levels … p.o.”) [1] read?
**A.** 0.6 nmol/g

**Q.** For `Nc1ncnc2c1ncn2CCOCP1(=O)OCCC(c2ccncc2)O1` (mixture of isomers) [Compound 2], which “Rat Hepatocytes, PMEApp formation, 250 μM, AUC 0–4 h” value [2] is on record?
**A.** 106.8 nmol·h/g

**Q.** Which results are given for `Nc1ncnc2c1ncn2CCOCP1(=O)OCCC(c2cc(Cl)cc(Cl)c2)O1` (mixture of isomers) [Compound 3]?
**A.** Activation Rate, Dex. Rat Liver Microsomes, 25 μM [3]: 2.2 nmol/min/mg; Activation Rate, Dex. Rat Liver Microsomes, 250 μM [3]: 1.9 nmol/min/mg

**Q.** What does the source list for `Nc1ncnc2c1ncn2CCOCP1(=O)OCCC(c2ccc(Br)c(F)c2)O1` (mixture of isomers) [Compound 5]?
**A.** Activation Rate, Dex. Rat Liver Microsomes, 25 μM [3, 18]: 1.3 nmol/min/mg; Activation Rate, Dex. Rat Liver Microsomes, 250 μM [3, 19]: 1.5 nmol/min/mg; Rats, PMEApp levels in liver organ @ 8 hr., 30 mg/kg, p.o. [1]: 2.6 nmol/g

**Q.** For `Nc1ncnc2c1ncn2CCOCP1(=O)OCCC(c2cccc(Br)c2)O1` (mixture of isomers) [Compound 7], which “Rats, PMEApp levels … p.o.” value [1] is on record?
**A.** 2.2 nmol/g

**Q.** Which “Rats, PMEApp levels … p.o.” value [1] does the source give for `Nc1ncnc2c1ncn2CCOCP1(=O)OCCC(c2cc(F)cc(F)c2)O1` (mixture of isomers) [Compound 10] here?
**A.** 2.2 nmol/g

**Q.** Which results are given for `Cc1ccc(C2CCOP(=O)(COCCn3cnc4c(N)ncnc43)O2)cn1` (mixture of isomers) [Compound 18]?
**A.** Activation Rate, Dex. Rat Liver Microsomes, 25 μM [3, 18]: <0.5 nmol/min/mg; Activation Rate, Dex. Rat Liver Microsomes, 250 μM [3, 19]: 0.6 nmol/min/mg

**Q.** For `CS(=O)(=O)O.Nc1ncnc2c1ncn2CCOCP1(=O)OCC[C@@H](c2cccc(Cl)c2)O1` (stereo in doubt) [Compound 56, 9-{2-[2,4-cis-(S)-(+)-4-(3′-Chlorophenyl)-2-oxo-1,3,2-dioxaphosphorinan-2-yl]metboxyethyl}adenine Methanesulfonate], which “OBAV (ratio of AUC of liver organ PMEApp oral vs i.v.)” value [4] is on record?
**A.** 42%

**Q.** What about the “Decomposition of dosing solutions” value ([5]; 30 and 300 mg/ml in water, 5 days, room temperature) of the same compound?
**A.** < 10%

**Q.** And the Solubility in water ([5]; water)?
**A.** > 300 mg/mL

**Q.** What about the “Activation Rate” value [6] of the same compound?
**A.** 0.45 ± 0.01 nmol/mg/min

**Q.** With `Nc1ncnc2c1ncn2CCOCP1(=O)OCC[C@@H](c2cccc(Cl)c2)O1` (stereo in doubt) [trans-, 9-{2-[2,4-trans-(S)-(+)-4-(3-chlorophenyl)-2-oxo-1,3,2-dioxaphosphorinan-2-yl]methoxyethyl} adenine] as the compound, how does the Activation (below measureable detection limit, text) [6] read?
**A.** < 0.05 nmol/min/mg

**Q.** And the “Activation Rate” value [6]?
**A.** ≦0.05 nmol/mg/min.

**Q.** For `Nc1ncnc2c1ncn2CCOCP1(=O)OCCC(c2ccccc2Br)O1` (centres unmarked) [Compound 6], which “Rats, PMEApp levels … p.o.” value [1] is on record?
**A.** 7.1 nmol/g

**Q.** For `Nc1ncnc2c1ncn2CCOCP(=O)(O)O` [PMEA, 9-(2-phosphonylmethoxyethyl)adenine], which “Oral bioavailability in monkeys” value [7] is on record?
**A.** < 1%

**Q.** What about the Oral bioavailability [8] of the same compound?
**A.** < 10%

**Q.** What about the AUC0-4h PMEApp levels in hepatocytes [9] of the same compound?
**A.** 84 nmol·h/g

**Q.** And the “Oral bioavailability in humans” value [10]?
**A.** < 12%

**Q.** And the “Dose excreted renally / renally cleared” value [11]?
**A.** 98%

**Q.** What does the source list for `CC(C)(C)C(=O)OCOP(=O)(COCCn1cnc2c(N)ncnc21)OCOC(=O)C(C)(C)C` [bis POM PMEA]?
**A.** AUC0-12h of PMEA in plasma ([12]; fasted rats): 21.3 µM·h; Urinary levels of PMEA ([12]; rats, urine 48 hours after treatment): 20.6 % dose; PMEA AUC (dose-normalized plasma), literature [13]: 10.9; Oral bioavailability in monkeys [7]: 25%; Dose excreted in feces in the form of PMEA [14]: 43%; Oral bioavailability in rats [15]: 38%; Oral bioavailability in humans [10]: 41%; Intact prodrug in plasma [16]: not detected; Half-life in human serum [17]: < 5 min
